Source: patent US20100035755A1, “METHOD OF CONTROLLING WEEDS IN A TURF GRASS BY USING SULFONYLUREA COMPOUNDS” (Moghu Research Center Ltd., priority 2008, published 2010)

What was measured:
Zoysia japonica [1] = assay: Actual field condition test of Example 1 (golf course); type: in vivo; conditions: twenty days after application
Protocol: (§1) The test chemical of the Example 1 was applied to a turf grass field, in which Digitaria sanguinalis as a representative summer-time poaceae weed and Kyllinga brevifolia as a representative hard-to-control perennial cyperaceae weed are thriving predominantly, to evaluate weed control effect of the compound. The experiment was carried out from May to July, 2008 in the Dae-duk Research Park golf course (Doryong-dong, Yusong-gu, Daejon, South Korea). At the time of the chemical application, Digitaria sanguinalis was at about 4-leaf stage and Kyllinga brevifolia was at growth period.

Kyllinga brevifolia = assay: as above; type: in vivo; conditions: for efficacy in actual field condition: Kyllinga brevifolia (growth period), twenty days after application
Protocol: as §1

Digitaria sanguinalis = assay: as above; type: in vivo; conditions: for efficacy in actual field condition: Digitaria sanguinalis (about 4-leaf stage), twenty days after application
Protocol: as §1

Kentucky bluegrass = assay: as above; type: in vivo, Poa pratensis; conditions: twenty days after application
Protocol: as §1

[2] = test system: every kind of turf grasses tested; assay: Turf grass selectivity, text summary over all turf grasses; type: in vivo
Excerpt: (§2) Turf mats of Zoysia grass, bentgrass, Kentucky bluegrass, or perennial rye grass known as cool season turfgrass or western grass were purchased and cut into a piece having 10 cm×20 cm size. Then, each piece was transplanted in a rectangular plastic pot (surface area of 300 cm^2) in which sandy loam and mixed top soil (Boo-Nong Top Soil No. 3, for horticultural use) are filled in 1:1 ratio. After the transplantation, the grasses were cut once a week to maintain the blade height at 0.5-1.0 cm and cultivated for one month in a green house of which temperature was kept at 25˜30° C. for daytime and 15˜25° C. for nighttime, respectively. Then, the ‘test chemical’ of the above Examples 1 and 2 or ‘control chemical’ was applied thereto in an amount of 400, 200, 100, 50, 25, 12, 6, 3 g ai/ha. As a “control chemical”, pyrazolsulfuron ethyl wettable agent (manufactured by Dongbu Fine Chemicals; herein after, referred to as ‘control chemical No. 1’) and flazasulfuron (manufactured by Dongbu HiTek; herein after, referred to as ‘control chemical No. 2’), both sulfonylurea herbicides for a turf grass, were used. Application was carried out by using a track sprayer (R&D Sprayer, USA) equipped with Teejet 8002 nozzle (Spraying Systems Co., USA), and the application amount was adjusted to 2,000 L/ha, which is a typical application amount for a golf course in Korea. Application solution was prepared by diluting the “test chemical” or the “control chemical” with tap water. […] The test was repeated three times in a random arrangement and the results are given in average value of each test (see Table 2 below).

Dandelion = assay: Weed spectrum, greenhouse pot test; type: in vivo; conditions: two weeks after application
Bentgrass = assay: Turf grass selectivity, greenhouse pot test; type: in vivo, Agrostris palustris
Excerpt: as §2

Zoysia japonica [3] = assay: Turf grass selectivity, greenhouse pot test; type: in vivo; conditions: Zoysia japonica
In short: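 Turf mats transplanted to pots of sandy loam/top soil (1:1), mown weekly to 0.5-1.0 cm and grown one month in greenhouse (25˜30° C. day, 15˜25° C. night). Test chemicals sprayed at 400, 200, 100, 50, 25, 12, 6, 3 g ai/ha in 2,000 L/ha tap-water dilution; three replicates, randomised, averaged.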

Cc1cc(C)nc(NC(=O)NS(=O)(=O)c2ccccc2C(O)C(C)F)n1 (centres unmarked) [Example 1]
phytotoxicity in actual field condition (Zoysia japonica [1]; 50 g ai/ha): 0
phytotoxicity in actual field condition (Zoysia japonica [1]; 100 g ai/ha): 0
efficacy in actual field condition (Kyllinga brevifolia; 50 g ai/ha): 100
efficacy in actual field condition (Kyllinga brevifolia; 100 g ai/ha): 100
efficacy in actual field condition (Kyllinga brevifolia; 200 g ai/ha): 100
weed controlled in actual field (Kyllinga brevifolia; Kyllinga brevifolia, 50 g ai/ha or more): 100%
efficacy in actual field condition (Digitaria sanguinalis; 50 g ai/ha): 80
efficacy in actual field condition (Digitaria sanguinalis; 100 g ai/ha): 90
efficacy in actual field condition (Digitaria sanguinalis; 200 g ai/ha): 100
weed controlled in actual field (Digitaria sanguinalis; Digitaria sanguinalis, 50 g ai/ha or more): 80%
phytotoxicity in actual field condition (Kentucky bluegrass; 50 g ai/ha): 0
phytotoxicity in actual field condition (Kentucky bluegrass; 100 g ai/ha): 0
phytotoxicity to a turf grass ([2]; 100 g ai/ha): no phytotoxicity at all
phytotoxicity to a turf grass ([2]; 400 g ai/ha): only minor phytotoxicity
phytotoxicity to turf grasses ([2]; 400 or 200 g ai/ha): only minor phytotoxicity
safety to turf grasses ([2]; every kind of turf grasses tested, 100 g ai/ha or less): excellent safety
efficacy (0-100 scale) (Dandelion; Post-emergence, 12 g ai/ha): 90
efficacy (0-100 scale) (Dandelion; Post-emergence, 25 g ai/ha): 90
efficacy (0-100 scale) (Dandelion; Post-emergence, 50 g ai/ha): 100
efficacy (0-100 scale) (Dandelion; Post-emergence, 100 g ai/ha): 100
efficacy (0-100 scale) (Dandelion; Pre-emergence, 12 g ai/ha): 90
efficacy (0-100 scale) (Dandelion; Pre-emergence, 25 g ai/ha): 90
efficacy (0-100 scale) (Dandelion; Pre-emergence, 50 g ai/ha): 100
efficacy (0-100 scale) (Dandelion; Pre-emergence, 100 g ai/ha): 100
phytotoxicity (visual assessment 0-10) (Bentgrass; 3 g ai/ha, 2 weeks): 0
phytotoxicity (visual assessment 0-10) (Bentgrass; 3 g ai/ha, 4 weeks): 0
phytotoxicity (visual assessment 0-10) (Bentgrass; 6 g ai/ha, 2 weeks): 0
phytotoxicity (visual assessment 0-10) (Bentgrass; 6 g ai/ha, 4 weeks): 0
phytotoxicity (visual assessment 0-10) (Bentgrass; 12 g ai/ha, 2 weeks): 0
phytotoxicity (visual assessment 0-10) (Bentgrass; 12 g ai/ha, 4 weeks): 0
phytotoxicity (visual assessment 0-10) (Bentgrass; 25 g ai/ha, 2 weeks): 0
phytotoxicity (visual assessment 0-10) (Bentgrass; 25 g ai/ha, 4 weeks): 0
phytotoxicity (visual assessment 0-10) (Bentgrass; 50 g ai/ha, 2 weeks): 0
phytotoxicity (visual assessment 0-10) (Bentgrass; 50 g ai/ha, 4 weeks): 0
phytotoxicity (visual assessment 0-10) (Bentgrass; 100 g ai/ha, 2 weeks): 1
phytotoxicity (visual assessment 0-10) (Bentgrass; 100 g ai/ha, 4 weeks): 0
phytotoxicity (visual assessment 0-10) (Bentgrass; 200 g ai/ha, 2 weeks): 2
phytotoxicity (visual assessment 0-10) (Bentgrass; 200 g ai/ha, 4 weeks): 1
phytotoxicity (visual assessment 0-10) (Bentgrass; 400 g ai/ha, 2 weeks): 3
phytotoxicity (visual assessment 0-10) (Bentgrass; 400 g ai/ha, 4 weeks): 2
phytotoxicity (visual assessment 0-10) (Zoysia japonica [3]; 3 g ai/ha, 2 weeks): 0
phytotoxicity (visual assessment 0-10) (Zoysia japonica [3]; 3 g ai/ha, 4 weeks): 0
phytotoxicity (visual assessment 0-10) (Zoysia japonica [3]; 6 g ai/ha, 2 weeks): 0
phytotoxicity (visual assessment 0-10) (Zoysia japonica [3]; 6 g ai/ha, 4 weeks): 0
phytotoxicity (visual assessment 0-10) (Zoysia japonica [3]; 12 g ai/ha, 2 weeks): 0
phytotoxicity (visual assessment 0-10) (Zoysia japonica [3]; 12 g ai/ha, 4 weeks): 0
phytotoxicity (visual assessment 0-10) (Zoysia japonica [3]; 25 g ai/ha, 2 weeks): 0
phytotoxicity (visual assessment 0-10) (Zoysia japonica [3]; 25 g ai/ha, 4 weeks): 0
phytotoxicity (visual assessment 0-10) (Zoysia japonica [3]; 50 g ai/ha, 2 weeks): 0
phytotoxicity (visual assessment 0-10) (Zoysia japonica [3]; 50 g ai/ha, 4 weeks): 0
phytotoxicity (visual assessment 0-10) (Zoysia japonica [3]; 100 g ai/ha, 2 weeks): 0
phytotoxicity (visual assessment 0-10) (Zoysia japonica [3]; 100 g ai/ha, 4 weeks): 0
phytotoxicity (visual assessment 0-10) (Zoysia japonica [3]; 200 g ai/ha, 2 weeks): 0
phytotoxicity (visual assessment 0-10) (Zoysia japonica [3]; 200 g ai/ha, 4 weeks): 0
phytotoxicity (visual assessment 0-10) (Zoysia japonica [3]; 400 g ai/ha, 2 weeks): 0
phytotoxicity (visual assessment 0-10) (Zoysia japonica [3]; 400 g ai/ha, 4 weeks): 0

CCOC(=O)c1cnn(C)c1S(=O)(=O)NC(=O)Nc1nc(OC)cc(OC)n1 [Control chemical No. 1, Pyrazosulfuron ethyl, reference compound]
phytotoxicity in actual field condition (Zoysia japonica [1]; 100 g ai/ha): 0
phytotoxicity in actual field condition (Kentucky bluegrass; 100 g ai/ha): 0
efficacy (0-100 scale) (Dandelion; Post-emergence, 12 g ai/ha): 80
efficacy (0-100 scale) (Dandelion; Post-emergence, 25 g ai/ha): 90
efficacy (0-100 scale) (Dandelion; Post-emergence, 50 g ai/ha): 100
efficacy (0-100 scale) (Dandelion; Post-emergence, 100 g ai/ha): 100
efficacy (0-100 scale) (Dandelion; Pre-emergence, 12 g ai/ha): 70
efficacy (0-100 scale) (Dandelion; Pre-emergence, 25 g ai/ha): 80
efficacy (0-100 scale) (Dandelion; Pre-emergence, 50 g ai/ha): 90
efficacy (0-100 scale) (Dandelion; Pre-emergence, 100 g ai/ha): 100
phytotoxicity (visual assessment 0-10) (Bentgrass; 3 g ai/ha, 2 weeks): 0
phytotoxicity (visual assessment 0-10) (Bentgrass; 3 g ai/ha, 4 weeks): 0
phytotoxicity (visual assessment 0-10) (Bentgrass; 6 g ai/ha, 2 weeks): 0
phytotoxicity (visual assessment 0-10) (Bentgrass; 6 g ai/ha, 4 weeks): 0
phytotoxicity (visual assessment 0-10) (Bentgrass; 12 g ai/ha, 2 weeks): 0
phytotoxicity (visual assessment 0-10) (Bentgrass; 12 g ai/ha, 4 weeks): 0
phytotoxicity (visual assessment 0-10) (Bentgrass; 25 g ai/ha, 2 weeks): 0
phytotoxicity (visual assessment 0-10) (Bentgrass; 25 g ai/ha, 4 weeks): 0
phytotoxicity (visual assessment 0-10) (Bentgrass; 50 g ai/ha, 2 weeks): 0
phytotoxicity (visual assessment 0-10) (Bentgrass; 50 g ai/ha, 4 weeks): 0
phytotoxicity (visual assessment 0-10) (Bentgrass; 100 g ai/ha, 2 weeks): 1
phytotoxicity (visual assessment 0-10) (Bentgrass; 100 g ai/ha, 4 weeks): 0
phytotoxicity (visual assessment 0-10) (Bentgrass; 200 g ai/ha, 2 weeks): 2
phytotoxicity (visual assessment 0-10) (Bentgrass; 200 g ai/ha, 4 weeks): 0
phytotoxicity (visual assessment 0-10) (Bentgrass; 400 g ai/ha, 2 weeks): 3
phytotoxicity (visual assessment 0-10) (Bentgrass; 400 g ai/ha, 4 weeks): 1
phytotoxicity (visual assessment 0-10) (Zoysia japonica [3]; 3 g ai/ha, 2 weeks): 0
phytotoxicity (visual assessment 0-10) (Zoysia japonica [3]; 3 g ai/ha, 4 weeks): 0
phytotoxicity (visual assessment 0-10) (Zoysia japonica [3]; 6 g ai/ha, 2 weeks): 0
phytotoxicity (visual assessment 0-10) (Zoysia japonica [3]; 6 g ai/ha, 4 weeks): 0
phytotoxicity (visual assessment 0-10) (Zoysia japonica [3]; 12 g ai/ha, 2 weeks): 0
phytotoxicity (visual assessment 0-10) (Zoysia japonica [3]; 12 g ai/ha, 4 weeks): 0
phytotoxicity (visual assessment 0-10) (Zoysia japonica [3]; 25 g ai/ha, 2 weeks): 0
phytotoxicity (visual assessment 0-10) (Zoysia japonica [3]; 25 g ai/ha, 4 weeks): 0
phytotoxicity (visual assessment 0-10) (Zoysia japonica [3]; 50 g ai/ha, 2 weeks): 0
phytotoxicity (visual assessment 0-10) (Zoysia japonica [3]; 50 g ai/ha, 4 weeks): 0
phytotoxicity (visual assessment 0-10) (Zoysia japonica [3]; 100 g ai/ha, 2 weeks): 0
phytotoxicity (visual assessment 0-10) (Zoysia japonica [3]; 100 g ai/ha, 4 weeks): 0
phytotoxicity (visual assessment 0-10) (Zoysia japonica [3]; 200 g ai/ha, 2 weeks): 0
phytotoxicity (visual assessment 0-10) (Zoysia japonica [3]; 200 g ai/ha, 4 weeks): 0
phytotoxicity (visual assessment 0-10) (Zoysia japonica [3]; 400 g ai/ha, 2 weeks): 0
phytotoxicity (visual assessment 0-10) (Zoysia japonica [3]; 400 g ai/ha, 4 weeks): 0
